Literature values in US20230218627A1, “PRESERVATIVE FREE PHARMACEUTICAL COMPOSITION FOR OPHTHALMIC ADMINISTRATION COMPRISING BRIMONIDINE” (PHARMATHEN S.A., priority 2020, published 2023).

What was measured:
[1] = test system: alpha-2 adrenergic receptor

SMILES	selectivity for the alpha-2 adrenergic receptor than the alpha-1 adrenergic receptor [1] [fold]	solubility in ethanol (ethanol)	solubility in water (water)
Brc1c(NC2=NCCN2)ccc2nccnc12 [Brimonidine]	1000	–	–
CC(C)(C)NC[C@H](O)COc1nsnc1N1CCOCC1.O=C(O)/C=C\C(=O)O [Timolol maleate, (2S)-1-[(1,1-Dimethylethyl)amino]-3-[[4-(morpholin-4-yl)-1,2,5-thiadiazol-3-yl]oxy]propan-2-ol (Z)-butenedioate]	–	soluble	soluble
